For data set [1], the system named is SH-SY5Y cells. In words: TCA cycle flux in SHSY-5Y cells. It is filed as cell-based, human. To be noted: FLVCR1a-silenced vs scramble shRNA SH-SY5Y cells. The text has this: Results were expressed as nmol NAD*/min/mg mitochondrial protein for complex I, nmol reduced cytochrome c/min/mg mitochondrial protein for complexes II-III, nmol oxidized cytochrome c/min/mg mitochondrial protein for complex IV. Data represent mean±SEM, n=3. For statistical analyses, an unpaired Student's t-test was used; *=p<0.05, **=p<0.01, *=p<0.001. […] Results are expressed as nmol/mg mitochondrial proteins. Data represent mean±SEM, n=3. For statistical analyses, an unpaired Student's t-test was used; *=p<0.05. […] Results are expressed as pmol CO2/h/mg protein. Data represent mean±SEM, n=3. For statistical analyses, an unpaired Student's t-test was used; **=p<0.01. […] Results were expressed as nmol NAD*/min/mg mitochondrial protein for complex I, nmol reduced cytochrome c/min/mg mitochondrial protein for complexes II-III, nmol oxidized cytochrome c/min/mg mitochondrial protein for complex IV. […] Results are expressed as nmol/mg mitochondrial proteins. […] Results are expressed as pmol CO2/h/mg protein. […] (H) TCA cycle enzymes activities are reported in boxes and expressed as mU/mg mitochondrial proteins. […] Results were expressed as nmol NAD^+/min/mg mitochondrial protein for complex I, nmol reduced cytochrome c/min/mg mitochondrial protein for complexes II-III, nmol oxidized cytochrome c/min/mg mitochondrial protein for complex IV. […] Results are expressed as nmol/mg mitochondrial proteins. […]

Data set [2] has as its system C80 cells. In words: Flow cytometric analysis of apoptosis in C80 cells. It is filed as cell-based, human. To be noted: FLVCR1a-silenced vs scramble shRNA, synchronized C80 cells. The text has this: (A) Proliferation of Caco2 cells assessed by crystal violet staining at the indicated days; bar=1000 μm. […] Staining quantification is reported in the bar graph as percentage of crystal violet stained area. Data represent mean±SEM, n=4. For statistical analyses, a two-way analysis of variance was used, followed by the Bonferroni correction for multiple group comparisons; *=p<0.05, ***=p<0.001. (B) Caco2 cells viability the day of plating (day 0) and three days after plaiting (day 3). The measure is considered a readout of cell proliferation. […] Data represent mean±SEM, n=3 wells. For statistical analyses, a two-way analysis of variance was used, followed by the Bonferroni correction for multiple group comparisons; *=p<0.05, **=p<0.01. (C, D, E) Representative flow cytometric analyses of apoptosis in synchronized Caco2 (C), SKCO1 (D) and C80 (E) cells. […] Data represent mean±SEM, n=4 wells pooled from two independent experiments. For statistical analyses, an unpaired Student's t-test was used; *=p<0.05, **=p<0.01. […]
Stained cells were analyzed using a FACSCanto II cytofluorimeter and processed with BD FACSDIVA Software v8.1 (BD Biosciences, Milan, IT; http://www.bdbiosciences.com/instruments/software/facsdiva/index.jsp/ RRID:SCR_001456), acquiring at least 10,000 events per sample or 25,000 cells per sample for cell cycle experiments.

“FLVCR1a shRNA: shRNA specifically down-regulating FLVCR1a without targeting FLVCR1b; pLKO.1 lentiviral clone TRCN0000059599, antisense SEQ ID No.: 2 (antisense TTGCTAATGATGCTGTACTGG; sense CCAGTACAGCATCATTAGCAA)”: the TCA cycle flux entry in data set [1] is reported as “increased TCA cycle flux”. Also, the apoptosis entry in data set [2] was “increased apoptosis”.

The record behind these values is patent US20240285670A1, “THERAPEUTIC TREATMENT OF TUMORS BY BLOCKING THE HEME SYNTHESIS-EXPORT AXIS” (Università degli Studi di Torino, priority 2021, published 2024).
